Laboratory results published in patent publication US10023562B2, “Heteroaryl substituted pyridyl compounds useful as kinase modulators” (BRISTOL-MYERS SQUIBB COMPANY, priority 2012, dated 2018).
Read-outs that look alike come from different tables or passages of the source.

Test system: TLR2 induced IL-6 in peripheral blood mononuclear cells (PBMCs)
Assay: PBMC TLR2 Induced IL-6 Assay
Assay type: cell-based
Conditions: 10 μg/ml lipoteichoic acid for 5 hours, IL-6 by ELISA; for EC50: values marked * are EC50, read-out: Cell EC50 (values marked *); for IC50: values without asterisk, read-out: Cell IC50
Description: PBMC TLR2 Induced IL-6 Assay Peripheral blood mononuclear cells (PBMCs) were isolated from human blood containing the anti-coagulant EDTA (2.5 mM) by centrifugation over a FICOLL® gradient. […] At the end of the culture, plates were centrifuged at 1800 rpm for 10 minutes to pellet the cells. Supernatants were harvested and analyzed for IL-6 levels by ELISA (BD Biosciences, San Jose, Calif.).

Compound | EC50 (Homo sapiens, PBMC, 5 h) [nM] | IC50 (Homo sapiens, PBMC, 5 h) [nM] | also measured
COC[C@H](F)CNC(=O)c1cnc(Nc2ncc(C#N)cc2F)cc1NC(C)C [Example 35, (R)-6-((5-cyano-3-fluoropyridin-2-yl)amino)-N-(2-fluoro-3-methoxypropyl)-4-(isopropylamino)nicotinamide] | 350 |  | 
COC(C)(C)[C@H](F)CNC(=O)c1cnc(Nc2ncc(C#N)cc2F)cc1NC(C)C [Example 36] | 49 |  | 
[2H]C([2H])([2H])OC(C)(C)[C@H](F)CNC(=O)c1cnc(Nc2ncc(C#N)cc2F)cc1NC(C)C [Example 37] | 95 |  | 
CC(C)(O)[C@H](F)CNC(=O)c1cnc(Nc2ncc(C(N)=O)cc2Cl)cc1NC1CCC(F)C1 (stereo partly shown) [Example 38] | 453 |  | 
C[C@@H](CF)Nc1cc(Nc2ncc(C#N)cc2Cl)ncc1C(=O)NC[C@@H](F)C(C)(C)O [Example 39, 6-((3-chloro-5-cyanopyridin-2-yl)amino)-N—((R)-2-fluoro-3-hydroxy-3-methylbutyl)-4-(((S)-1-fluoropropan-2-yl)amino)nicotinamide] | 100 |  | 
CC(C)Nc1cc(Nc2ncc(C#N)c(NC(C)C)n2)ncc1C(=O)NC[C@@H](F)C(C)(C)O [Example 40] | 161 |  | 
CC(C)Nc1cc(Nc2nc(OC3CCNCC3)ncc2Cl)ncc1C(=O)NC[C@@H](F)C(C)(C)O [Example 41] | 160 |  | 
CC(C)(O)[C@H](F)CNC(=O)c1cnc(Nc2nc(OC3CCNCC3)ncc2Cl)cc1NC1CC1 [Example 42] | 329 |  | 
CC(C)(O)C(F)(F)CNC(=O)c1cnc(Nc2ncc(C#N)cc2Cl)cc1NC1CC1 [Example 43, 6-((3-chloro-5-cyanopyridin-2-yl)amino)-4-(cyclopropylamino)-N-(2,2-difluoro-3-hydroxy-3-methylbutyl)nicotinamide] | 169 |  | 
CC(C)Nc1cc(Nc2ccc(=O)[nH]n2)ncc1C(=O)NC[C@@H](F)C(C)(C)O [Example 45] |  | 712 | 
CC(C)(F)CNc1cc(Nc2ncc(C#N)cc2Cl)ncc1C(=O)NC[C@@H](F)C(C)(C)O [Example 46] | 206 |  | 
CC(C)(O)[C@H](F)CNC(=O)c1cnc(Nc2ncc(C#N)cc2F)cc1NC1CC1 [Example 47] |  | 69 | 
CC(C)(O)CNc1cc(Nc2ncc(C#N)cc2Cl)ncc1C(=O)NC[C@@H](F)C(C)(C)O [Example 48] |  | 369 | 
CC(C)(O)[C@H](F)CNC(=O)c1cnc(Nc2ncc(C#N)cc2F)cc1NC1CCOCC1 [Example 49] |  | 164 | 
C[C@@H](CO)Nc1cc(Nc2ncc(C#N)cc2Cl)ncc1C(=O)NC[C@@H](F)C(C)(C)O [Example 50] |  | 85 | 
CCNc1cc(Nc2ncc(C#N)cc2Cl)ncc1C(=O)NC[C@@H](F)C(C)(C)O [Example 51] |  | 99 | 
CC(C)Nc1cc(Nc2ncncc2Cl)ncc1C(=O)NC[C@@H](F)C(C)(C)O [Example 52] |  | 74 | 
CC(C)Nc1cc(Nc2ncncc2F)ncc1C(=O)NC[C@@H](F)C(C)(C)O [Example 53] | 517 |  | 
CC(C)(O)[C@H](F)CNC(=O)c1cnc(Nc2ncc(C#N)cn2)cc1NC1CCC(F)C1 (stereo partly shown) [Example 56] |  | 41 | 
CCNc1cc(Nc2ncc(C#N)cn2)ncc1C(=O)NC[C@@H](F)C(C)(C)O [Example 58] |  | 191 | 
CNC(=O)[C@H]1CC[C@H](NC(=O)c2cnc(Nc3ncc(C#N)cc3F)cc2NC2CC2)CC1 [Example 59] |  | 60 | 
CNC(=O)[C@H]1CC[C@H](NC(=O)c2cnc(Nc3ncc(C#N)cc3Cl)cc2NC2CC2)CC1 [Example 60] |  | 52 | 
CNC(=O)[C@H]1CC[C@H](NC(=O)c2cnc(Nc3ncc(C#N)cc3F)cc2NC2CCOCC2)CC1 [Example 61] |  | 184 | 
Cc1nc(Nc2cc(NC(C)C)c(C(=O)NC[C@@H](F)C(C)(C)O)cn2)ccc1C#N [Example 63] | 92 |  | 
CC(=O)N[C@H](C)CCNC(=O)c1cnc(Nc2ncc(C#N)cc2F)cc1NC(C)C [Example 64] |  | 448 | 
CC(C)(O)[C@H](F)CNC(=O)c1cnc(Nc2ncc(C#N)cc2Cl)cc1NCC(F)(F)F [Example 65] | 156 |  | 

Compound | EC50 (Homo sapiens, PBMC, 5 h) [nM] | IC50 (Homo sapiens, PBMC, 5 h) [nM] | also measured
CCNc1cc(Nc2ncc(C#N)cc2F)ncc1C(=O)NC[C@@H](F)C(C)(C)O [Example 66] | 63 |  | 
CC(=O)N[C@H]1CC[C@H](NC(=O)c2cnc(Nc3ncc(C#N)cc3Cl)cc2NC2CC2)CC1 [Example 67] | 457 |  | 
CCn1ncc(Nc2cc(NC(C)C)c(C(=O)NC[C@@H](F)C(C)(C)O)cn2)n1 [Example 72] | 246 |  | 
CC(C)(O)c1cnc(Nc2cc(Nc3ncc(C#N)cc3Cl)ncc2C(=O)NC[C@@H](F)C(C)(C)O)s1 [Example 75] | 54 |  | 
CC(C)(O)[C@H](F)CNC(=O)c1cnc(Nc2ncc(C#N)cc2Cl)cc1NC1CCCC1O (stereo partly shown) [Example 76] | 107 |  | 
CC(=O)N[C@H]1CC[C@H](NC(=O)c2cnc(Nc3ncc(C#N)cc3Cl)cc2NC2CCOCC2)CC1 [Example 77] | 216 |  | 
CC(C)(O)[C@H](F)CNC(=O)c1cnc(Nc2ncc(C#N)cc2Cl)cc1NC1CCOCC1F (stereo partly shown) [Example 79] | 494 |  | 
CC(C)Nc1cc(Nc2ncc(F)cc2F)ncc1C(=O)NC[C@@H](F)C(C)(C)O [Example 80] | 335 |  | 
CC(C)(O)[C@H](F)CNC(=O)c1cnc(Nc2ccc(Cl)cn2)cc1NC1CC1 [Example 81] | 96 |  | 
CC(=O)N[C@H]1CC[C@H](NC(=O)c2cnc(Nc3ncc(C#N)cc3F)cc2NC2CC2)CC1 [Example 83] | 771 |  | 
CC(C)(O)[C@H](F)CNC(=O)c1cnc(Nc2ncc(C#N)cn2)cc1NC1CCC(F)C1 (stereo partly shown) [Example 86] | 349 |  | 
CC(C)(O)[C@H](F)CNC(=O)c1cnc(Nc2ncc(F)cc2F)cc1NC1CC1 [Example 89] | 491 |  | 
CC(C)(O)[C@H](F)CNC(=O)c1cnc(Nc2ncc(C#N)cc2Cl)cc1NC12CC(C1)C2 [Example 90] | 243 |  | 
C[C@@H](CO)Nc1cc(Nc2ncc(C#N)cc2F)ncc1C(=O)NC[C@@H](F)C(C)(C)O [Example 91] | 178 |  | 
CC(C)Nc1cc(Nc2ncc(C#N)cc2Cl)ncc1C(=O)N[C@H]1CC[C@H](O)CC1 [Example 92] | 269 |  | 
COC(=O)Cn1cc(Cl)c(Nc2cc(NC(C)C)c(C(=O)NC[C@@H](F)C(C)(C)O)cn2)n1 [Example 93] | 394 |  | 
CC(C)(O)[C@H](F)CNC(=O)c1cnc(Nc2ncncc2F)cc1NC1CC1 [Example 94] | 391 |  | 
CC(C)(O)[C@H](F)CNC(=O)c1cnc(Nc2ncncc2Cl)cc1NC1CCOCC1 [Example 95] | 501 |  | 
CC(C)(O)[C@H](F)CNC(=O)c1cnc(Nc2ncncc2Cl)cc1NC1CCCOC1 (stereo partly shown) [Example 96] |  | 1550 | 
CC(C)(O)[C@H](F)CNC(=O)c1cnc(Nc2ncc(C#N)cc2F)cc1NC1CCCOC1 (stereo partly shown) [Example 97] |  | 418 | 
CC(C)(O)[C@H](F)CNC(=O)c1cnc(Nc2ncc(C#N)cc2F)cc1NC1CCCOC1 (stereo partly shown) [Example 98] |  |  | IC50 (human PBMC): 690 nM
CCC(C)Nc1cc(Nc2ncc(C#N)cn2)ncc1C(=O)NC[C@@H](F)C(C)(C)O (stereo partly shown) [Example 99] |  | 475 | 
C[C@H](CO)Nc1cc(Nc2ncc(F)cc2F)ncc1C(=O)NC[C@@H](F)C(C)(C)O [Example 100] | 308 |  | 
C[C@@H](CO)Nc1cc(Nc2ncc(C#N)cn2)ncc1C(=O)NC[C@@H](F)C(C)(C)O [Example 101] | 380 |  | 
CC(C)(F)CNc1cc(Nc2ncc(C#N)cc2Cl)ncc1C(=O)NC1CCC(C(C)(C)O)CC1 (stereo not shown) [Example 103] | 195 |  | 
CC(C)(O)[C@H](F)CNC(=O)c1cnc(Nc2ncc(C#N)cc2Cl)cc1NC1CCCCC1O (stereo partly shown) [Example 104] | 199 |  | 
